In patent US6579890B1, “Matrix metalloprotease inhibitors” (Syntex (U.S.A.) Inc., priority 1993, dated 2003):

Molecule CC(C)(C)[C@H](NC(=O)[C@H](CCCc1ccc(-c2ccccc2)cc1)CC(=O)O)C(=O)Nc1ccncc1 [Example 32A, N-(2R-carboxymethyl-5-(biphen-4-yl)pentanoyl)-L-t-leucine-N′-(pyridin-4-yl)carboxamide] has a melting point of 198 to 201 °C.
